Measured values: ChEMBL document CHEMBL1909046, “DrugMatrix in vitro pharmacology data”
*1 amine or outer side, *2 acyl side, *3 side chain or, on linkers, in order; H or OH if unused. Where a SMILES comes first, the peptide text is derived from it. Bridges are numbered along the chain shown (N, C = ends). Roman numbers before positions name the chains, in order. [ ]: non-standard residue; d: D form. Actinocin(1to9) = Cc1c2oc3c(C)ccc(C(=O)[*:2])c3nc-2c(C(=O)[*:1])c(N)c1=O; NMeV = CN[C@H](C(=O)O)C(C)C; Sar = CNCC(=O)O

How the values were obtained:
[1] = target: T1, 5-hydroxytryptamine receptor 2C (Homo sapiens, UniProt P28335); assay: DRUGMATRIX: Serotonin (5-Hydroxytryptamine) 5-HT2C radioligand binding (ligand: [3H] Mesulergine); type: cell membranes, CHO-K1, Membrane; details: cho-k1; Not Active = under 50% inhibition at 10 µM
T1 sequence (P28335 whole entry): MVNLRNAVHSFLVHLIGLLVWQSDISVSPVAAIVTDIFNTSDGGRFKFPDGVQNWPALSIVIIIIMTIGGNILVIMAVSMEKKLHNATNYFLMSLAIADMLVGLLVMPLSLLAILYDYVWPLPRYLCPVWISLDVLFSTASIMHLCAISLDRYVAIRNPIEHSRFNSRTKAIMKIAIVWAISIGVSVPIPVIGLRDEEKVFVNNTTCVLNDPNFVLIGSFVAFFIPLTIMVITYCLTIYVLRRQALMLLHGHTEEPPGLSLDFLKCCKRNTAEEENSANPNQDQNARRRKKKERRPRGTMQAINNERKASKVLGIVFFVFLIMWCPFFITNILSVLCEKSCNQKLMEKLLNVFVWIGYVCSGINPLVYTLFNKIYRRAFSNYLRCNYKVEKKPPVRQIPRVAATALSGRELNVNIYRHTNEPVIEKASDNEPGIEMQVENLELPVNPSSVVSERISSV

[2] = DRUGMATRIX: Tumor Necrosis Factor (TNF), Non-Selective radioligand binding (ligand: [125I] TNF-alpha); type: cell membranes, Membrane; details: u-937; Not Active = under 50% inhibition at 10 µM
[3] = target: Prostaglandin G/H synthase 1 (Homo sapiens, UniProt P23219); assay: biochemical; type: tissue-based, Platelet;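 also: inhibition of COX-1 enzyme activity, with arachidonic acid supplied as substrate; in other assays of this panel Not Active means under 50% inhibition at 10 µM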
Sequence of Prostaglandin G/H synthase 1 (P23219 whole entry): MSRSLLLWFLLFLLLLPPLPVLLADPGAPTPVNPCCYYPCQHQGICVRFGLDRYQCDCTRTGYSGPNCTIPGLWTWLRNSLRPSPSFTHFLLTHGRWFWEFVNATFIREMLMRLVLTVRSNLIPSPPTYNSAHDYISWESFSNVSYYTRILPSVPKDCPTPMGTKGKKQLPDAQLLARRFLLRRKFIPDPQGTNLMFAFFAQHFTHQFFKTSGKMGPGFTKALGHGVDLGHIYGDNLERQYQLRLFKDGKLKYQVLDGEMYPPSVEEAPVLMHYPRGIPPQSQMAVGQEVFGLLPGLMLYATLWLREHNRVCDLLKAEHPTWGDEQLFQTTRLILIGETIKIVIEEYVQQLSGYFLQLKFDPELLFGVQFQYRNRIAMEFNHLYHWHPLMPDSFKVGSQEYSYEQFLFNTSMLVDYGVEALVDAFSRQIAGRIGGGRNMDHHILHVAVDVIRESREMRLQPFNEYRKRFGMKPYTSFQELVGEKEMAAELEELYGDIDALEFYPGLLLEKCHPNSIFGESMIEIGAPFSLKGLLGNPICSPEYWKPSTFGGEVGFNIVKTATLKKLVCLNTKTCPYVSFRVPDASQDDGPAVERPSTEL

[4] = target: 5-hydroxytryptamine receptor 6 (Homo sapiens, UniProt P50406); type: cell membranes, HeLa, Membrane; also: in other assays of this panel Not Active means under 50% inhibition at 10 µM
Sequence of 5-hydroxytryptamine receptor 6 (P50406 whole entry): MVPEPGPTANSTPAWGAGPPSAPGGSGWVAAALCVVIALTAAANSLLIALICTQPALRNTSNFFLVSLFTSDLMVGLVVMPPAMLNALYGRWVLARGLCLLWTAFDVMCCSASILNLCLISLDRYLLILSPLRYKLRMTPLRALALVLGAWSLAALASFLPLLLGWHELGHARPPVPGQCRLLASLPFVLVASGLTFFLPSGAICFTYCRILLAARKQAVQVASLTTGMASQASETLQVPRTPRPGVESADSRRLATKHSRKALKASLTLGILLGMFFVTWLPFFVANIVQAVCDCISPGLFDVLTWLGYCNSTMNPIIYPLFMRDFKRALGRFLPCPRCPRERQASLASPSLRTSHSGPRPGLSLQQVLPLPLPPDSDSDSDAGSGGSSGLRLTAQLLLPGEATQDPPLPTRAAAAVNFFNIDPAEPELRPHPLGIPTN

[5] = DRUGMATRIX: ATPase, Na+/K+ enzyme inhibition (substrate: ATP); type: tissue-based, Sus scrofa, Heart; details: Not Active = under 50% inhibition at 10 µM
[6] = DRUGMATRIX: beta-Lactamase enzyme inhibition (substrate: Nitrocefin); set-up: species or system Bacillus cereus; details: Not Active = under 50% inhibition at 10 µM

COCCc1ccc(OCC(O)CNC(C)C)cc1 (stereo not drawn) [METOPROLOL]
Not Active: IC50 [1] | IC50 [2] | Ki [2] | IC50 ([3]; platelet) | IC50 ([4]; hela) | IC50 [5] | Ki [5] | IC50 [6] | Ki [6]

COc1cc2nc(N3CCN(C(=O)C4COc5ccccc5O4)CC3)nc(N)c2cc1OC (stereo not drawn) [DOXAZOSIN]
Not Active: IC50 [2] | Ki [2] | IC50 ([3]; platelet) | IC50 ([4]; hela) | IC50 [5] | Ki [5] | IC50 [6] | Ki [6]

NCCCCCC(=O)O [AMINOCAPROIC ACID]
Not Active: IC50 [1] | IC50 [2] | Ki [2] | IC50 ([3]; platelet) | IC50 ([4]; hela) | IC50 [5] | Ki [5] | IC50 [6] | Ki [6]

CC(C)(C)NCC(O)c1cc(Cl)c(N)c(Cl)c1 (stereo not drawn) [CLENBUTEROL]
Not Active: IC50 [1] | IC50 [2] | Ki [2] | IC50 ([3]; platelet) | IC50 ([4]; hela) | IC50 [5] | Ki [5] | IC50 [6] | Ki [6]

CCCN1C[C@H](CSC)C[C@@H]2c3cccc4[nH]cc(c34)C[C@H]21 [PERGOLIDE]
Not Active: IC50 [2] | Ki [2] | IC50 ([3]; platelet) | IC50 [5] | Ki [5] | IC50 [6] | Ki [6]
18 nM: Ki ([4]; read-out: Ki)
39 nM: IC50 ([4]; read-out: IC50)

CN(C)C(=O)Oc1cc(OC(=O)N(C)C)cc(C(O)CNC(C)(C)C)c1 (stereo not drawn) [BAMBUTEROL]
Not Active: IC50 [1] | IC50 [2] | Ki [2] | IC50 ([3]; platelet) | IC50 ([4]; hela) | IC50 [5] | Ki [5] | IC50 [6] | Ki [6]

c1ccc(Nc2ccc(Nc3ccccc3)cc2)cc1
260 nM: IC50 ([3]; read-out: IC50)
Not Active: IC50 [1] | IC50 [2] | Ki [2] | IC50 ([4]; hela) | IC50 [5] | Ki [5] | IC50 [6] | Ki [6]

Cc1cc(C(C#N)c2ccc(Cl)cc2)c(Cl)cc1NC(=O)c1cc(I)cc(I)c1O (stereo not drawn) [CLOSANTEL]
4880 nM: IC50 ([5]; read-out: IC50)
Not Active: IC50 [1] | IC50 [2] | Ki [2] | IC50 ([3]; platelet) | IC50 ([4]; hela) | IC50 [6] | Ki [6]

Cc1ccc2cc3c(ccc4ccccc43)c3c2c1CC3 [3-METHYLCHOLANTHRENE]
Not Active: IC50 [1] | IC50 [2] | Ki [2] | IC50 ([3]; platelet) | IC50 ([4]; hela) | IC50 [5] | Ki [5] | IC50 [6] | Ki [6]

Nc1nc2c(ncn2CCC(CO)CO)c(=O)[nH]1 [PENCICLOVIR]
Not Active: IC50 [1] | IC50 [2] | Ki [2] | IC50 ([3]; platelet) | IC50 ([4]; hela) | IC50 [5] | Ki [5] | IC50 [6] | Ki [6]

CC1Cc2ccccc2N1NC(=O)c1ccc(Cl)c(S(N)(=O)=O)c1 (stereo not drawn) [INDAPAMIDE]
Not Active: IC50 [1] | IC50 [2] | Ki [2] | IC50 ([3]; platelet) | IC50 ([4]; hela) | IC50 [5] | Ki [5] | IC50 [6] | Ki [6]

Cc1ccc(-c2cc(C(F)(F)F)nn2-c2ccc(S(N)(=O)=O)cc2)cc1 [CELECOXIB]
Not Active: IC50 [1] | IC50 [2] | Ki [2] | IC50 ([4]; hela) | IC50 [5] | Ki [5] | IC50 [6] | Ki [6]

CCCCc1nc(Cl)c(CO)n1Cc1ccc(-c2ccccc2-c2nnn[nH]2)cc1 [LOSARTAN]
Not Active: IC50 [1] | IC50 [2] | Ki [2] | IC50 ([3]; platelet) | IC50 ([4]; hela) | IC50 [5] | Ki [5] | IC50 [6] | Ki [6]

CC(NC(C)(C)C)C(=O)c1cccc(Cl)c1 (stereo not drawn) [BUPROPION]
Not Active: IC50 [1] | IC50 [2] | Ki [2] | IC50 ([3]; platelet) | IC50 ([4]; hela) | IC50 [5] | Ki [5] | IC50 [6] | Ki [6]

COc1cc2c3cc1Oc1cc(ccc1O)C[C@@H]1c4c(cc(OC)c(O)c4Oc4ccc(cc4)C[C@@H]3N(C)CC2)CC[N+]1(C)C.[Cl-]
Not Active: IC50 [1] | IC50 [2] | Ki [2] | IC50 ([3]; platelet) | IC50 ([4]; hela) | IC50 [5] | Ki [5] | IC50 [6] | Ki [6]

CCC(C)n1ncn(-c2ccc(N3CCN(c4ccc(OCC5COC(Cn6cncn6)(c6ccc(Cl)cc6Cl)O5)cc4)CC3)cc2)c1=O (stereo not drawn) [ITRACONAZOLE]
Not Active: IC50 [1] | IC50 [2] | Ki [2] | IC50 ([3]; platelet) | IC50 ([4]; hela) | IC50 [5] | Ki [5] | IC50 [6] | Ki [6]

CADMIUM ACETATE
Not Active: IC50 [1] | Ki [1] | IC50 [2] | Ki [2] | IC50 ([3]; platelet) | Ki ([3]; platelet) | IC50 ([4]; hela) | Ki ([4]; hela) | IC50 [5] | Ki [5] | IC50 [6] | Ki [6]

C[C@H]1O[C@@H](O[C@H]2[C@@H](O)C[C@H](O[C@H]3[C@@H](O)C[C@H](O[C@H]4CC[C@@]5(C)[C@H](CC[C@@H]6[C@@H]5C[C@@H](O)[C@]5(C)[C@@H](C7=CC(=O)OC7)CC[C@]65O)C4)O[C@@H]3C)O[C@@H]2C)C[C@H](O)[C@@H]1O [DIGOXIN]
1650 nM: IC50 ([5]; read-out: IC50)
Not Active: IC50 [1] | IC50 [2] | Ki [2] | IC50 ([3]; platelet) | IC50 ([4]; hela) | IC50 [6] | Ki [6]

Cc1c2oc3c(C)ccc(C(=O)N[C@@H]4C(=O)N[C@H](C(C)C)C(=O)N5CCC[C@H]5C(=O)N(C)CC(=O)N(C)[C@@H](C(C)C)C(=O)O[C@@H]4C)c3nc-2c(C(=O)N[C@@H]2C(=O)N[C@H](C(C)C)C(=O)N3CCC[C@H]3C(=O)N(C)CC(=O)N(C)[C@@H](C(C)C)C(=O)O[C@@H]2C)c(N)c1=O [DACTINOMYCIN] (I: T[dV]P[Sar][NMeV] / II: T[dV]P[Sar][NMeV]; ester I:1-I:C, II:1-II:C; linker I:N-II:N via Actinocin(1to9))
Not Active: IC50 [1] | IC50 [2] | Ki [2] | IC50 ([3]; platelet) | IC50 ([4]; hela) | IC50 [5] | Ki [5] | IC50 [6] | Ki [6]

Cc1ccc(N(CC2=NCCN2)c2cccc(O)c2)cc1 [PHENTOLAMINE]
Not Active: IC50 [2] | Ki [2] | IC50 ([3]; platelet) | IC50 ([4]; hela) | IC50 [5] | Ki [5] | IC50 [6] | Ki [6]

CN(C)CCCN1c2ccccc2Sc2ccc(Cl)cc21 [CHLORPROMAZINE]
Not Active: IC50 [2] | Ki [2] | IC50 ([3]; platelet) | IC50 [5] | Ki [5] | IC50 [6] | Ki [6]

CCOC(=O)C1=C(COCCN)NC(C)=C(C(=O)OC)C1c1ccccc1Cl (stereo not drawn) [AMLODIPINE]
Not Active: IC50 [1] | IC50 [2] | Ki [2] | IC50 ([3]; platelet) | IC50 [5] | Ki [5] | IC50 [6] | Ki [6]
